Test results: PubChem BioAssay (NCI)
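Tested at 5 concentrations; 48 h exposure; 96-well plates; endpoints linearly interpolated, else capped at highest concentration. The concentration for full growth arrest is given as TGI.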

Legend:
Assay in all cases: inhibition of tumour cell growth, NCI panel, 48 h
[1] = tested on: A498 renal
[2] = tested on: CAKI-1 renal
[3] = tested on: CCRF-CEM leukemia
[4] = tested on: COLO 205 colon
[5] = tested on: DU-145 prostate
[6] = tested on: HCT-116 colon
[7] = tested on: HCT-15 colon
[8] = tested on: HOP-62 NSCLC
[9] = tested on: HOP-92 NSCLC
[10] = tested on: HS 578T breast
[11] = tested on: HT29 colon
[12] = tested on: IGROV1 ovarian
[13] = tested on: K-562 leukemia
[14] = tested on: KM12 colon
[15] = tested on: M14 melanoma
[16] = tested on: MALME-3M melanoma
[17] = tested on: MDA-MB-231 breast
[18] = tested on: MDA-MB-435
[19] = tested on: MDA-N
[20] = tested on: MOLT-4 leukemia
[21] = tested on: NCI-H23 lung
[22] = tested on: NCI-H460 lung
[23] = tested on: NCI-H522 lung
[24] = tested on: NCI/ADR-RES ovarian
[25] = tested on: OVCAR-3 ovarian
[26] = tested on: OVCAR-8 ovarian
[27] = tested on: PC-3 prostate
[28] = tested on: RPMI-8226 leukemia
[29] = tested on: SF-295 CNS
[30] = tested on: SK-MEL-2 melanoma
[31] = tested on: SK-MEL-28 melanoma
[32] = tested on: SK-MEL-5 melanoma
[33] = tested on: SK-OV-3 ovarian
[34] = tested on: SN12C renal
[35] = tested on: SNB-75 CNS
[36] = tested on: SR leukemia
[37] = tested on: T-47D breast
[38] = tested on: U251 CNS
[39] = tested on: UACC-62 melanoma
[40] = tested on: 786-0 renal
[41] = tested on: A549 NSCLC
[42] = tested on: ACHN renal
[43] = tested on: BT-549 breast
[44] = tested on: EKVX NSCLC
[45] = tested on: HCC-2998 colon
[46] = tested on: HL-60(TB) leukemia
[47] = tested on: LOX IMVI melanoma
[48] = tested on: MCF7 breast
[49] = tested on: NCI-H226 lung
[50] = tested on: OVCAR-4 ovarian
[51] = tested on: OVCAR-5 ovarian
[52] = tested on: RXF 393 renal
[53] = tested on: SF-268 CNS
[54] = tested on: SF-539 CNS
[55] = tested on: SNB-19 CNS
[56] = tested on: SW-620 colon
[57] = tested on: TK-10 renal
[58] = tested on: UACC-257 melanoma
[59] = tested on: UO-31 renal

In the case of `C1=C(N2CCOCC2)/C(=C2\SC(=Nc3ccccc3)C(=Nc3ccccc3)N2c2ccccc2)CC1`, the TGI [1] was > 100 µM, the TGI [2] was > 100 µM and the TGI [3] was > 100 µM. For the same molecule, the TGI [4] was > 100 µM, the TGI [5] was > 100 µM and the TGI [6] was > 100 µM. The TGI [7] was > 100 µM, the TGI [8] was > 100 µM and the TGI [9] was > 100 µM. The TGI [10] was > 100 µM, the TGI [11] was > 100 µM and the TGI [12] was > 100 µM. For the same molecule, the TGI [13] was > 100 µM, the TGI [14] was > 100 µM and the TGI [15] was > 100 µM. For the same molecule, the TGI [16] was > 100 µM, the TGI [17] was > 100 µM and the TGI [18] was > 100 µM. The TGI [19] was > 100 µM, the TGI [20] was > 100 µM and the TGI [21] was > 100 µM. The TGI [22] was > 100 µM, the TGI [23] was > 100 µM and the TGI [24] was > 100 µM. For the same molecule, the TGI [25] was > 100 µM, the TGI [26] was > 100 µM and the TGI [27] was > 100 µM. The TGI [28] was > 100 µM, the TGI [29] was > 100 µM and the TGI [30] was > 100 µM. The TGI [31] was > 100 µM, the TGI [32] was > 100 µM and the TGI [33] was 69 µM. The TGI [34] was > 100 µM, the TGI [35] was 65.4 µM and the TGI [36] was > 100 µM. For the same molecule, the TGI [37] was > 100 µM, the TGI [38] was > 100 µM and the TGI [39] was 48.9 µM.
In the case of `Cc1c(O)c(OC2OC(CO)C(O)C(O)C2O)cc2c1CC[C@@H]1C2(C)C(=O)C[C@]2(C)[C@@H]([C@@](C)(O)C(O)CCC(C)(C)O)[C@H](O)C[C@@]12C` (stereo partly specified), the TGI [40] was > 100 µM, the TGI [1] was > 100 µM and the TGI [41] was > 100 µM. For the same molecule, the TGI [42] was > 100 µM, the TGI [43] was > 100 µM and the TGI [2] was > 100 µM. For the same molecule, the TGI [3] was > 100 µM, the TGI [4] was > 100 µM and the TGI [5] was > 100 µM. The TGI [44] was > 100 µM, the TGI [45] was > 100 µM and the TGI [6] was > 100 µM. For the same molecule, the TGI [7] was > 100 µM, the TGI [46] was > 100 µM and the TGI [8] was > 100 µM. The TGI [9] was > 100 µM, the TGI [11] was > 100 µM and the TGI [12] was > 100 µM. For the same molecule, the TGI [13] was > 100 µM, the TGI [14] was > 100 µM and the TGI [47] was > 100 µM. The TGI [15] was > 100 µM, the TGI [16] was > 100 µM and the TGI [48] was > 100 µM. The TGI [17] was > 100 µM, the TGI [18] was > 100 µM and the TGI [19] was > 100 µM. The TGI [20] was > 100 µM, the TGI [49] was > 100 µM and the TGI [21] was > 100 µM. For the same molecule, the TGI [22] was > 100 µM, the TGI [23] was > 100 µM and the TGI [24] was > 100 µM. For the same molecule, the TGI [25] was > 100 µM, the TGI [50] was > 100 µM and the TGI [51] was > 100 µM. The TGI [26] was > 100 µM, the TGI [27] was > 100 µM and the TGI [52] was > 100 µM. The TGI [53] was > 100 µM, the TGI [29] was > 100 µM and the TGI [54] was > 100 µM. For the same molecule, the TGI [30] was > 100 µM, the TGI [31] was > 100 µM and the TGI [32] was > 100 µM. The TGI [33] was > 100 µM, the TGI [34] was > 100 µM and the TGI [55] was > 100 µM. For the same molecule, the TGI [35] was > 100 µM, the TGI [36] was > 100 µM and the TGI [56] was > 100 µM. The TGI [37] was > 100 µM, the TGI [57] was > 100 µM and the TGI [38] was > 100 µM. For the same molecule, the TGI [58] was > 100 µM, the TGI [39] was > 100 µM and the TGI [59] was > 100 µM.
